Data on four compounds can be found in ChEMBL document CHEMBL1201862, “PubChem BioAssay data set” (2004).

For test [1], the target named is T1, Tyrosyl-DNA phosphodiesterase 2 (Homo sapiens, UniProt O95551).
T1 sequence (O95551 whole entry): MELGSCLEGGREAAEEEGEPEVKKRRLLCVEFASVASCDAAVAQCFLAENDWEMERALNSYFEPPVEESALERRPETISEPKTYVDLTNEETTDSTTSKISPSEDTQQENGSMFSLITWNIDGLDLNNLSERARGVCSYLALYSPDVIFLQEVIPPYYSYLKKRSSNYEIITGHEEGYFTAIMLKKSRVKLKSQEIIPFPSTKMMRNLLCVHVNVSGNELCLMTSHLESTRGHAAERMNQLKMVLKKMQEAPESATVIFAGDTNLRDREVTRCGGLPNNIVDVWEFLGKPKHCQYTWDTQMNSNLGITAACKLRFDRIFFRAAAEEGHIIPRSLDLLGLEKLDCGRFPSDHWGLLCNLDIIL
The test can be described thus: human TDP2 enzyme inhibitors, dose response, biochemical, epi absorbance, IC50 (AID 743297).

For test [2], the target named is T2, Sentrin-specific protease 7 (Homo sapiens, UniProt Q9BQF6).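 Also: Luminescence-based dose-response confirmation of ultra-high-throughput screening hits, measuring inhibition of SENP7.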
T2 sequence (Q9BQF6 whole entry): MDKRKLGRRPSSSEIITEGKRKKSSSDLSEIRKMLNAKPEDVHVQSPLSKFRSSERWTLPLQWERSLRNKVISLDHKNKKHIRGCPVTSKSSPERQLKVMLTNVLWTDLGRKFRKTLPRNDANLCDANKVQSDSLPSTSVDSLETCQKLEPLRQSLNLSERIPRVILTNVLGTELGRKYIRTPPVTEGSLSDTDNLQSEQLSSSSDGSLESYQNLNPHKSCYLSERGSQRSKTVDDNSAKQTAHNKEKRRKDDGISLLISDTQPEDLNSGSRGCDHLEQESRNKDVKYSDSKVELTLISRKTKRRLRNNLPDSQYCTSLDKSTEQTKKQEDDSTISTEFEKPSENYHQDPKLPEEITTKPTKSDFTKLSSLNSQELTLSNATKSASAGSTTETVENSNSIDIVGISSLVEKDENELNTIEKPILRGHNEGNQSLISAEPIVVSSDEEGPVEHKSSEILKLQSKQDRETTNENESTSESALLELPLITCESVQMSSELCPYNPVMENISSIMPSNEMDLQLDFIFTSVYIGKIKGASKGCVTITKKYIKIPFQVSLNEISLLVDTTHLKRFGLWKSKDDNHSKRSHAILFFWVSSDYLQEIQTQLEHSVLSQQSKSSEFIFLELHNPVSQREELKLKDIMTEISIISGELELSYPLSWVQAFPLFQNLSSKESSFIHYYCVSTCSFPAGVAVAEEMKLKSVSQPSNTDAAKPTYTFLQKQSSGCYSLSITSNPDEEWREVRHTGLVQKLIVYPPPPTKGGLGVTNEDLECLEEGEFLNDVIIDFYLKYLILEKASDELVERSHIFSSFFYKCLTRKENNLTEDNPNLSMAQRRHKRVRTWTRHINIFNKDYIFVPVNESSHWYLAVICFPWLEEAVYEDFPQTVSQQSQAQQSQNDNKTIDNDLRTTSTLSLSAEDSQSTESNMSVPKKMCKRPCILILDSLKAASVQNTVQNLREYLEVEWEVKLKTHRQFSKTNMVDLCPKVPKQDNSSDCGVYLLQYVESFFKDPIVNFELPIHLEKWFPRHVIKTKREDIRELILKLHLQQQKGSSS
In kind it is functional.

Test [3] concerns the target T3, Sentrin-specific protease 6 (Homo sapiens, UniProt Q9GZR1).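 Also: Luminescence-based dose-response confirmatory assay of SENP6 inhibition, following up an ultra-high-throughput screen.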
T3 sequence (Q9GZR1 whole entry): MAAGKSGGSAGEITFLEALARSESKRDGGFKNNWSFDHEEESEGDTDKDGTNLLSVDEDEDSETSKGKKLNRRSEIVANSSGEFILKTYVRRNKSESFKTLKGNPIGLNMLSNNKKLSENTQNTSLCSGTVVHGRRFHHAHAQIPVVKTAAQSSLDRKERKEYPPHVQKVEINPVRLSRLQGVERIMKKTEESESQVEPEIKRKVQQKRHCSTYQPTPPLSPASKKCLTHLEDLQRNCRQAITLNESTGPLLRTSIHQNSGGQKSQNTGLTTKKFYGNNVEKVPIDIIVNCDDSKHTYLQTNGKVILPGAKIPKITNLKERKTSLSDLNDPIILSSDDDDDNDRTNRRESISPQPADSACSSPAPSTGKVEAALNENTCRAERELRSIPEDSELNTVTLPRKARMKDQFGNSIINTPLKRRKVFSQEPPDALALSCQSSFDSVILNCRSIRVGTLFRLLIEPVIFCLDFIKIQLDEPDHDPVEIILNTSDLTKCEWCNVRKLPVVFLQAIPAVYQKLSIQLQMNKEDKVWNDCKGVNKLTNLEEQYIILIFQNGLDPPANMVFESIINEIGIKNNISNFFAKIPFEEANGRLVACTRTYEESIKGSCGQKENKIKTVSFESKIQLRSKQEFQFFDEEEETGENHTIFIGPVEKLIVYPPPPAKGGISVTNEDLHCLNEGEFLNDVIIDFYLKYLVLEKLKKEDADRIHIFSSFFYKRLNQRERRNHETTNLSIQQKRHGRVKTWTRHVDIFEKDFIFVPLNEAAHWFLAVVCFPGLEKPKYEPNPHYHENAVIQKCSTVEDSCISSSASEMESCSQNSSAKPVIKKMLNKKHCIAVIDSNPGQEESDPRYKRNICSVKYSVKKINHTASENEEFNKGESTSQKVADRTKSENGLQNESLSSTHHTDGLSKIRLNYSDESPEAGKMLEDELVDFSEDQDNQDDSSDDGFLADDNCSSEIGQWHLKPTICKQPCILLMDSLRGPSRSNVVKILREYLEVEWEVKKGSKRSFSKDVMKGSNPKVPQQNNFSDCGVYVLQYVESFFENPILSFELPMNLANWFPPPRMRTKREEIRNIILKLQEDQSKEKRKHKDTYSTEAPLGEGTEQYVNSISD
The class given is functional.

Activity calls are given as the source filed them. Rule as the data show it, for most assays here: actives have a measured IC50 and inactives only a lower limit.

By IC50 is commonly meant the concentration that gives 50% inhibition. As for `COc1ccc(NC(=S)Nc2ccc3nsnc3c2)cc1`, the half-maximal inhibitory concentration (IC50) in test [1] is 9.93 µM (active); in test [2], 4.08 µM (active); in test [3] it was 2.3 µM (active).
Consider `CC(C)(C)c1cc[n+](C2=C([N-]S(=O)(=O)c3ccccc3)C(=O)c3ccccc3C2=O)cc1`, for which the 50% inhibitory concentration (IC50) in test [2] was 13.5 µM (active); in test [3] it was 8.45 µM (active).
Take `O=C1C(=O)c2ccccc2C(O)=C1CCCCl`: the half-maximal inhibitory concentration (IC50) in test [2] is 9.05 µM (active); in test [3], 7.23 µM (active).
As to `O=C1C=C(Nc2ccccc2C(=O)O)c2ccccc2C1=O`, the values for the IC50 in test [1], in test [2] and in test [3] were 6.56 µM (active), 7.86 µM (active) and 2 µM (active), respectively.
